This is an account of results in patent US20050003449A1, “Method for determining molecular affinities for human serum albumin” (priority 2003, published 2005).

One experiment has as its target T1, HSA (V) (Homo sapiens, UniProt P02768).
T1 construct: Human serum albumin, fraction V, with a purity ≧95% as indicated by cellulose acetate electrophoresis; purchased Calbiochem 12666
Nature of the experiment: Isothermal titration calorimetry of the probe with HSA. It counts as binding. Particulars: ITC, PBS. As to the method:
The bottom plot represents the isothermal titrating calorimetry results integrated enthalpies and least-squares curve fit for the probe interaction with HSA (V) in PBS.
Isothermal titration calorimetry experiments were performed using an OMEGA titrating microcalorimeter from Microcal, Inc. (Northampton, Mass.). Data collection, analysis, and plotting were performed using a Windows-based software package (Origin 5.0) supplied by the instrument vendor. The titrating microcalorimeter consisted of a sample and reference cell held in an adiabatic enclosure. The calorimeter was calibrated by comparing the measured areas of applied heat pulses to known values. Known and experimentally measured values agreed to within 2%.
The probe was prepared in DMSO at 10 mM and diluted to 500 μM in PBS. the probe and HSA solutions were degassed prior to analysis. The reference cell was filled with PBS. A 20 μM solution of HSA in PBS was placed in the 1.37 mL sample cell and the probe (0.5 mM) was held in a 250 μL syringe. Thirty injections (6 μL each) of the probe were made by a computer-controlled stepper motor into the sample cell filled with HSA held at 37° C. The syringe stir rate was 400 rpm. The heat adsorbed or released with each injection was measured by a thermoelectric device connected to a Microcal nanovolt preamplifier. Titration isotherms for the binding interactions were comprised of the differential heat flow for each injection. Heats of dilution obtained by injecting ligand into dialysate buffer were minor but were subtracted prior to fitting the data. Isotherms fit well to a single site model (Wiseman, T., et. al. Anal. Biochem (1989) 179, 131-137) using an iterative nonlinear least-squares algorithm included with the instrument.
All parameters were floated during the iterations until a minimum %^2 was obtained between experimental and fit data. […] The change in free energy (ΔG) and change in entropy (ΔS) were determined using the Gibbs' free energy equation. […]
Background: ITC needs no label: the signal is the heat of the interaction.

A further experiment addresses HSA (fraction V) (Homo sapiens, UniProt P02768). Nature of the experiment: biochemical.

As to `Cn1c(/C=C/c2ccc(C#N)cc2C(=O)O)cc2ccccc21` [the probe, 5-cyano-2-[(E)-2-(1-methyl-1H-indol-2-yl)ethenyl]benzoic acid], the “enthalpy change for the interaction” value on HSA (V) was -10.4 kcal/M. Moreover, the Kd at HSA (V) (read-out: average affinity for all binding interactions) is 15 µM; at HSA (fraction V) it was 0.39 µM. Besides, the “molecules of the probe bound per HSA (stoichiometry)” value at HSA (V) (single-site model) is recorded as “approximately 2”.
